Data published in patent US10039760B2, “Method of using diketopiperazines and composition containing them” (Ampio Pharmaceuticals, Inc., priority 2000, dated 2018).

System: NHBE 6122 normal human bronchial epithelial cells
Test: PAF-induced release of IL-8 by NHBE 6122 cells (IL-8 ELISA of cell supernatants)
Assay type: cell-based
Method: NHBE 6122 normal human bronchial epithelial cells (Clonetics, San Diego, Calif.) were added to a 24-well tissue culture plate (Falcon, now BD Biosciences, Franklin Lakes, […]) in BEGM (bronchial epithelial growth medium; Clonetics) containing epinephrine (complete medium) at 37° C. and 5% CO2. After adhering, the cells were washed twice with BEGM medium without epinephrine. They were then incubated in complete medium or in complete medium containing 20 μM 3-methyl-2,5-diketopiperazine-6-acetic acid (DA-DKP; preparation described in Example 1, 5; stock solution made in HEPES buffered saline (HBSS; Clonetics) at 4 mM for 20 minutes at 37° C. and 5% CO2. Platelet activating factor (PAF; Sigma, St. Louis, Mo.) dissolved in dimethylsulfoxide (DMSO; tissue culture grade; Sigma, St. Louis, Mo.) was then added to a final concentration of 100 nM or 500 nM, and the cells were incubated for an additional 6 hours at 37° C. and 5% CO2. Medium containing DMSO and HBSS was used as a control.
The concentration of IL-8 in cell supernatants was determined by an ELISA using human IL-8 matched pair antibodies (Endogen, Cambridge, Mass.). The ELISA was performed using an ELISA kit from Endogen, Cambridge, Mass. according to the manufacturer's instructions with the following exceptions: (1) coating antibody at 1 μg/ml; (2) detecting antibody 30 ng/ml; StrepAvidin HRP diluted 1:32,000.

| Compound | IL-8 (Table 1, PAF 100 nM alone, 20,000 cells/well, 6 hours) | IL-8 (Table 2, PAF 500 nM alone, 20,000 cells/well, 6 hours) | IL-8 (Table 3, PAF 100 nM alone, cells split to 5,000 cells/well four days prior, grown to 70% confluence) | IL-8 (Table 1, 20 min pre-incubation with DA-DKP 20 μM, then PAF 100 nM for 6 hours, 20,000 cells/well) | IL-8 (Table 1, DA-DKP 20 μM alone, no PAF, 20,000 cells/well, 6 hours) | IL-8 (Table 2, 20 min pre-incubation with DA-DKP 20 μM, then PAF 500 nM for 6 hours, 20,000 cells/well) | IL-8 (Table 2, DA-DKP 20 μM alone, no PAF, 20,000 cells/well, 6 hours) | IL-8 (Table 3, DA-DKP 20 μM alone, no PAF, cells split to 5,000 cells/well four days prior, grown to 70% confluence) | IL-8 (Table 3, pre-incubation with DA-DKP 20 μM, then PAF 100 nM, cells split to 5,000 cells/well four days prior, grown to 70% confluence) | IL-8 secretion induced by PAF (result in words, pre-incubation of the cells with the diketopiperazine) |
| --- | --- | --- | --- | --- | --- | --- | --- | --- | --- | --- |
| 1-O-alkyl-2-acetyl-sn-glycerol-3-phosphorylcholine [PAF, reference compound] | 1094.68 pg/mL | 887.87 pg/mL | 355.36 pg/mL | – | – | – | – | – | – | – |
| CC1NC(=O)C(CC(=O)O)NC1=O (stereo not shown) [DA-DKP, 3-methyl-2,5-diketopiperazine-6-acetic acid] | – | – | – | 714.91 pg/mL | 803.11 pg/mL | 542.5 pg/mL | 837.84 pg/mL | 184.86 pg/mL | 201.93 pg/mL | inhibited |
